Test results as given in PubChem BioAssay (NCI).
Values joined by “and” are separate entries in the source; they are usually repeats but may differ in a detail not shown here. Equal entries are not always repeated.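 Grown in 96-well plates, cells were treated for 48 hours with each compound at five concentrations. Insufficient inhibition: endpoint recorded as highest concentration tested. Here, GI50 denotes the concentration required for 50% inhibition of growth. TGI is the concentration that stops growth completely.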

What was measured:
Experiment in all cases: NCI-60 cell line screen, 48 h
MDA-MB-231 breast = system: MDA-MB-231 breast
IGROV1 ovarian = system: IGROV1 ovarian
SF-539 CNS = system: SF-539 CNS
U251 CNS = system: U251 CNS
NCI-H460 lung = system: NCI-H460 lung
MDA-MB-435 = system: MDA-MB-435
HCC-2998 colon = system: HCC-2998 colon
UACC-62 melanoma = system: UACC-62 melanoma
HL-60(TB) leukemia = system: HL-60(TB) leukemia
HOP-92 NSCLC = system: HOP-92 NSCLC

| Structure (SMILES) | GI50 (MDA-MB-231 breast) | TGI (MDA-MB-231 breast) | GI50 (IGROV1 ovarian) | TGI (IGROV1 ovarian) | GI50 (SF-539 CNS) | TGI (SF-539 CNS) | GI50 (U251 CNS) | TGI (U251 CNS) | GI50 (NCI-H460 lung) | TGI (NCI-H460 lung) | GI50 (MDA-MB-435) | TGI (MDA-MB-435) | GI50 (HCC-2998 colon) | TGI (HCC-2998 colon) | GI50 (UACC-62 melanoma) | TGI (UACC-62 melanoma) | GI50 (HL-60(TB) leukemia) | TGI (HL-60(TB) leukemia) | TGI (HOP-92 NSCLC) | GI50 (HOP-92 NSCLC) |
| --- | --- | --- | --- | --- | --- | --- | --- | --- | --- | --- | --- | --- | --- | --- | --- | --- | --- | --- | --- | --- |
| CCn1c(-c2cc3c([nH]c4ccccc43)c(-c3cccc(O)c3)n2)n[nH]c1=S | 2.79 µM | 15.6 µM | 4.23 µM | 35.5 µM | 2.42 µM | 9.27 µM | 3.18 µM | 15.1 µM | 3.04 µM | 10.7 µM | 0.0496 µM | 2.94 µM | 4.77 µM | 17.5 µM | 1.95 µM | 7.35 µM |  |  |  |  |
| COC(=O)C12CC(NC(=O)c3csc([C@@H](C[C@H](C(C)C)N(C)C(=O)[C@@H](NC(=O)[C@H]4CCCCN4C)C4CC4)OC(C)=O)n3)(C1)C2 | 0.0435 µM | > 16.7 µM | 0.0126 µM | > 16.7 µM | 0.00853 µM | 0.0613 µM | 0.0474 µM | > 16.7 µM | 0.0472 µM | > 16.7 µM | 0.00243 µM | 0.0197 µM | 0.0851 µM | > 16.7 µM | 0.0153 µM | > 16.7 µM | 0.00243 µM | 0.00876 µM |  |  |
| O=C1OC(c2ccccc2)=N/C1=C\c1ccc(Oc2ccc(Cl)c(Cl)c2)cc1 |  |  |  | > 100 µM |  | 58.4 µM |  | 65.9 µM |  | > 100 µM |  |  |  | > 100 µM |  | 52.3 µM |  | 56.9 µM | > 100 µM |  |
| NCCCCC1NC(=O)C(CC(=O)O)NC(=O)CNC(=O)C(CCCN=C(N)N)NC(=O)C(N)CSSCC(C(=O)O)NC(=O)C(CC(=O)O)NC(=O)C2CCCN2C(=O)CNC1=O (stereo unspecified) | > 100 µM | > 100 µM | > 100 µM | > 100 µM | > 100 µM | > 100 µM | > 100 µM | > 100 µM | > 100 µM | > 100 µM | > 100 µM | > 100 µM | > 100 µM | > 100 µM | > 100 µM | > 100 µM |  |  |  |  |
| COc1ccc(-c2cc(C(=O)Nc3cc(C(F)(F)F)cc(C(F)(F)F)c3)c3ccccc3n2)cc1 |  |  |  | 44.9 µM |  | 28.4 µM |  | 15.5 µM |  | 19.4 µM |  |  |  | 29.7 µM |  | > 100 µM |  | > 100 µM |  |  |
| [O-]c1ccccc1C=Nc1ccc2c(c1)CCC2.[O-]c1ccccc1C=Nc1ccc2c(c1)CCC2.[O]=[U+2]=[O] |  |  | 41 µM | > 100 µM | 14.2 µM | > 100 µM |  |  | 47.3 µM | > 100 µM |  |  | 57.1 µM | > 100 µM | > 100 µM | > 100 µM | 9.43 µM | > 100 µM |  |  |
| O=C(O)/C=C\C(=O)Nc1ccccn1 |  | > 100 µM |  | > 100 µM |  | > 100 µM |  | > 100 µM |  | > 100 µM |  | > 100 µM |  |  |  | > 100 µM |  | > 100 µM | > 100 µM |  |
| Cc1ccc(S(=O)(=O)N=NC=C2c3ccccc3N(O)c3ccccc32)cc1 |  |  |  | 27.1 µM |  |  |  | 13.1 µM |  | 5.99 µM |  |  |  | 21.6 µM |  | 18.8 µM |  | 4.62 µM | 19.5 µM |  |
| Cn1c(=O)c2[nH]c(SCCN3CCOCC3)nc2n(C)c1=S |  | > 100 µM |  | > 100 µM |  | > 100 µM |  | > 100 µM |  | > 100 µM |  | > 100 µM |  |  |  | > 100 µM |  | > 100 µM | > 100 µM |  |
| COC(=O)CCC12CCC(=O)C1[C@@H](C(=O)OC)C[C@H]2C(=O)OC (stereo partly specified) |  |  |  | > 100 µM |  | > 100 µM |  | > 100 µM |  | > 100 µM |  |  |  | > 100 µM |  | > 100 µM |  | > 100 µM |  |  |
| COc1ccc(C(=O)c2cc3c(N)c(C(=O)Nc4ccccc4)sc3nc2C)cc1 | 2.43 µM | > 100 µM | 2.51 µM | > 100 µM | 0.598 µM | 4.57 µM | 0.704 µM | > 100 µM | 0.439 µM | 3.93 µM |  |  | 1.96 µM | 55.3 µM | 0.952 µM | > 100 µM | 0.5 µM | 26.3 µM | > 100 µM | 86.3 µM |
| COc1ccc(NC(=O)/C=C(C)/C=C/C=C(C)/C=C/C2=C(C)CCCC2(C)C)cc1 | 4.25 µM | 15.1 µM |  |  | 2.59 µM | 6.15 µM | 4.76 µM | 17.9 µM | 12.8 µM | 26.9 µM | 5.47 µM | 19.1 µM | 17.7 µM | 33.5 µM | 10.7 µM | 22.9 µM | 2.85 µM | 6.01 µM |  |  |
| Cc1cc(Cl)ccc1OCC(=O)Nc1nc(N)nc(N)n1 |  | > 100 µM |  | > 100 µM |  | > 100 µM |  | > 100 µM |  | > 100 µM |  | > 100 µM |  |  |  | > 100 µM |  | > 100 µM | > 100 µM |  |
| Cn1cccc1-c1cc(-c2ccccc2)[nH]c(=O)c1C#N | > 100 µM | > 100 µM | > 100 µM | > 100 µM | > 100 µM | > 100 µM | > 100 µM | > 100 µM | > 100 µM | > 100 µM | > 100 µM | > 100 µM | > 100 µM | > 100 µM | 95 µM | > 100 µM |  |  | 0.0283 µM |  |
| COc1ccc(OC(C(=O)O)C(C)C)c2c1CCCC2=O (stereo unspecified) |  |  |  | > 100 µM |  | > 100 µM |  | > 100 µM |  | > 100 µM |  |  |  | > 100 µM |  | > 100 µM |  | > 100 µM |  |  |
| COc1ccc2c(c1OC)-c1c(c3ccc([N+](=O)[O-])cc3c(=O)n1CCCBr)C2=O | 55 µM | > 100 µM |  |  |  |  |  |  | 6.64 µM | 68.8 µM |  |  |  |  | 18.1 µM | 76.1 µM |  |  |  |  |
| CC(C)(O)/C=C/C(=O)[C@](C)(O)[C@H]1[C@H](O)C[C@@]2(C)[C@@H]3CC=C4[C@@H](C[C@H](O)C(=O)C4(C)C)[C@]3(C)C(=O)C[C@]12C |  |  | 0.211 µM | 0.479 µM and 1.22 µM | 0.217 µM | 0.614 µM and 0.264 µM | 0.105 µM | 0.419 µM and 0.322 µM | 0.0509 µM | 20.4 µM |  |  | 0.371 µM and 0.647 µM | 8.67 µM | 0.0736 µM | 0.947 µM and 2.44 µM |  | 0.687 µM and 1.68 µM | 0.439 µM and 0.407 µM | 0.255 µM |
| O=C1C(=O)N(c2ccc(Cl)cc2)C(=O)C(=O)C1c1nc2ccccc2s1 |  |  |  | > 100 µM |  | > 100 µM |  | > 100 µM |  | > 100 µM |  |  |  | > 100 µM |  | > 100 µM |  |  | > 100 µM |  |
| Clc1cccc(N2CCN(CCCN3CCc4c([nH]c5ccccc45)C3c3cccnc3)CC2)c1 (stereo unspecified) |  |  |  | > 100 µM | 11.7 µM | 32.3 µM |  | 23.9 µM | 7.85 µM | 23.7 µM |  |  | 3.06 µM | 11.9 µM |  |  | 4.63 µM | > 100 µM | 31.3 µM | 12.8 µM |
